This is an account of results in patent US20040082598A1, “Compounds specific to adenosine A, receptors and uses thereof” (OSI Pharmaceuticals, Inc., priority 2000, published 2004).

Structures are written as SMILES.

The subject of series [1] is human A1 adenosine receptor. As to conditions: cited from earlier work.
The target in series [2] is T1, human A1 receptor subtype (Homo sapiens, UniProt P30542).
T1 construct: yeast alpha-factor (Mfα1) prepro leader (N, cleaved yes); expressed in transfected cells; host or cells: Saccharomyces cerevisiae (strain CY12660 or related strains carrying plasmid p5095)
T1 sequence (P30542 1-326): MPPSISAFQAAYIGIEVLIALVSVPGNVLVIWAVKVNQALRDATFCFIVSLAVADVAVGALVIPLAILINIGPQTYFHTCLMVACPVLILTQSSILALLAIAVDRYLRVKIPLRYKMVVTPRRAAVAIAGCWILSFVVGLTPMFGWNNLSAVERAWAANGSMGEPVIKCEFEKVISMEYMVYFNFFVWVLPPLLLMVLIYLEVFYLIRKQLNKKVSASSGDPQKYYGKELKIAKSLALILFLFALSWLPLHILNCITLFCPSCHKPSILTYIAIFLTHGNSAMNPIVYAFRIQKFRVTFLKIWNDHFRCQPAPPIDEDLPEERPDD
Briefly: Adenosine 1 receptor subtype saturation and competition radioligand binding ([3H]DPCPX, yeast membranes).

The target in series [3] is T2, human adenosine A1 (A1R) (Homo sapiens, UniProt P30542).
T2 construct: yeast alpha-factor (Mfα1) prepro leader (N, cleaved yes); expressed in transfected cells; host or cells: Saccharomyces cerevisiae (strain CY12660 or related strains carrying plasmid p5095)
T2 sequence (P30542 1-326): T1 sequence (P30542 1-326)
Briefly: Yeast β-galactosidase reporter gene assay, strain CY12660. Format: cell-based. The note with it: inhibition of NECA-induced β-galactosidase activity. On the technique in general: Reporter assays use an easily measured gene product as a stand-in for the process of interest.

In series [4] the target is T3, human A2a receptor subtype (Homo sapiens, UniProt P29274).
T3 construct: expressed in transfected cells; host or cells: HEK-293 (Cadus clone # 5)
Briefly: Adenosine 2a receptor subtype competition radioligand binding ([3H]CGS-21680, HEK293 membranes). As to conditions: no footnote at cell; footnote 8 of table: % activity @ 10 μM.

In series [5] the target is T4, human A3 receptor subtype (Homo sapiens, UniProt P0DMS8).
T4 construct: expressed in transfected cells; host or cells: HEK293
T4 sequence (P0DMS8 1-318): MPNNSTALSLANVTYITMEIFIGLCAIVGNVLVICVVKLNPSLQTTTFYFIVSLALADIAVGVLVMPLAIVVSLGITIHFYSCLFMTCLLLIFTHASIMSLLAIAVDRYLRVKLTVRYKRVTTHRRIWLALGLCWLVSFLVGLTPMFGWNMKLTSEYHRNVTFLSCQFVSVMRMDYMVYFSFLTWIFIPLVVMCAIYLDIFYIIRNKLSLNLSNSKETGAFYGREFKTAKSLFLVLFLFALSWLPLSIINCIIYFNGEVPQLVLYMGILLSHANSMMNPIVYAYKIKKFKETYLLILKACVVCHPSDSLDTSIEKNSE
As to the kind of experiment: Adenosine 3 receptor competition radioligand binding ([125I]AB-MECA, HEK293 membranes).

For series [6], the target named is human A2a receptor. The note with it: read-out: Reported Ki; cited from earlier work.

T3 sequence (P29274 whole entry): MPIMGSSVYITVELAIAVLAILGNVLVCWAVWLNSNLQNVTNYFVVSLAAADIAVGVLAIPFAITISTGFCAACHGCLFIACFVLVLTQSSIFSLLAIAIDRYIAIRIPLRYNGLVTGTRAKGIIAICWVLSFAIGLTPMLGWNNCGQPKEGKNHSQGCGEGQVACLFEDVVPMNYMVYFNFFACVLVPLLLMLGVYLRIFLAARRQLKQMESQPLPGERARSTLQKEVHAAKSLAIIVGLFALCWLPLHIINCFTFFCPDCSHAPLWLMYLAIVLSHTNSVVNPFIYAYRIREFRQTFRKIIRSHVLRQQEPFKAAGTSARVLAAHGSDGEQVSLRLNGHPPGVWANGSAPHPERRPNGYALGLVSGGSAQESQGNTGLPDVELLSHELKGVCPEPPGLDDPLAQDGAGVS

Regarding `CC(Cc1ccccc1)Nc1ncnc2c1ncn2[C@@H]1O[C@H](CO)[C@@H](O)[C@H]1O` (single isomer, unassigned; (-)) [PIA, (−)-N6-(2-phenylisopropyl)-adenosine], the reported affinity entry in series [1] is given as “approximately 50 nM”.
What is called Ki is a dissociation constant, usually derived from enzyme kinetics or from competition with a known ligand. In series [2], `Cc1[nH]c2nc(-c3ccccc3)nc(NC3CCC(NS(C)(=O)=O)CC3)c2c1C` (stereo not drawn) [Compound 604] yielded a Ki of over 10000 nM.
The term IC50 denotes the concentration that gives 50% inhibition. A high value points to lower potency. With `Cc1[nH]c2nc(-c3ccccc3)nc(NC3CCC(NC(=O)c4ccccc4)CC3)c2c1C` (stereo not drawn) [Compound 606], the IC50 in series [3] is over 10000 nM. Further, in series [2], affinity was put at a Ki of 298 nM.
On the same counts, the results for `Cc1[nH]c2nc(-c3ccccc3)nc(NC3CCC(CC(=O)c4ccccc4)CC3)c2c1C` (stereo not drawn) [Compound 611] are over 10000 nM and 786 nM.
Consider `Cc1[nH]c2nc(-c3cccnc3)nc(N[C@H]3CC[C@H](O)CC3)c2c1C` [Compound 700], for which, in series [3], the IC50 was over 10000 nM.
`CNC(=O)NCCCNc1nc(-c2ccccc2)nc2[nH]c(C)c(C)c12` [Compound 1310]: in series [4], the “A2a binding, % value printed in Ki column” value was 76%.
Take `Cc1[nH]c2nc(-c3ccccc3)nc(NCCNC(=O)C3(N)CC3)c2c1C` [Compound 1313]: the “A2a binding, % value printed in Ki column” value in series [4] was 65%. Moreover, the “A1 binding, % value printed in Ki column” value in series [2] (no footnote at cell, footnote 8 of table: % activity @ 10 μM) worked out at 30%.
Take `O[C@H]1CC[C@H](Nc2nc(-c3ccncc3)nc3[nH]ccc23)CC1` [Compound 1321]: the “A3 binding, % activity @ 10 μM” value in series [5] was found to be 54%^8.
As usually defined, the melting point is the temperature of the solid-liquid transition. The compound `NC(=O)[C@@H]1CCCN1c1nc(-c2ccccc2)nc2[nH]ccc12` [Compound 1602] had a melting point of 236 to 238 °C.
Same read-out and setting: with `COCc1cc2c(N3CCC[C@H]3C(N)=O)nc(-c3ccccc3)nc2[nH]1` [Compound 1605] the figure was 213 to 215 °C; with `NC(=O)[C@@H]1C[C@H](O)CN1c1nc(-c2ccccc2)nc2[nH]ccc12` [Compound 1606, 4-Hydroxy-1-(2-phenyl-7H-pyrrolo[2,3-d]pyrimidin-4-yl]-pyrrolidine-2-carboxylic acid amide], 268 to 271 °C; with `NC(=O)[C@@H]1CCCN1c1nc(-c2ccccc2)nc2[nH]c(C(=O)O)cc12` [Compound 1619, [4-(2-Carbamoylpyrrolidin-1-yl)-2-phenyl-7H-pyrrolo[2,3-d]pyrimidine-6-carboxylic acid]], 220 °C (dec.).
In turn, `COC(=O)c1cc2c(NC3CCC(O)CC3)nc(-c3ccccc3)nc2[nH]1` (stereo not drawn) [Compound 1627, 4-(4-Hydroxy-cyclohexylamino)-2-phenyl-7H-pyrrolo[2,3-d]pyrimidine-6-carboxylic acid methyl ester] registered a melting point of 225 to 227 °C.
`NC(=O)c1cc2c(NC3CCC(O)CC3)nc(-c3ccccc3)nc2[nH]1` (stereo not drawn) [Compound 1630, 4-(4-Hydroxy-cyclohexylamino)-2-phenyl-7H-pyrrolo[2,3-d]pyrimidine-6-carboxylic acid amide]: the melting point was 210 to 220 °C (dec.).
As for `CCNC(=O)[C@H]1O[C@@H](n2cnc3c(N)ncnc32)[C@H](O)[C@@H]1O` [NECA, 5′-N-ethylcarboxamidoadenosine], the Ki in series [6] was […].
